In PMC6753678, “Fueling Open Innovation for Malaria Transmission-Blocking Drugs: Hundreds of Molecules Targeting Early Parasite Mosquito Stages” (Frontiers in Microbiology, 2019):

Tests used:
[1] = system: P. falciparum female gametocytes; test: P. falciparum female gametogenesis assay (Pf FGAA); conditions: 1: YES; 0: NO; >10-fold selectivity over cytotox
[2] = system: P. falciparum female gametocytes; design: method as in Miguel-Blanco et al 2017; conditions: ref Miguel-Blanco et al 2017; read-out: Pf FGAA IC50; cited from earlier work
HepG2 cells = test: HepG2 cytotoxicity assay; conditions: unified HepG2 cytotoxicity across the three screens
Procedure, shortened: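 Cells at 2,500 per well in MEM with 10% fetal bovine serum and 1% NEAA were exposed to test compounds for 48 h at 37°C, 5% CO2. Viability was read by fluorescence, with percent inhibition calculated against 50 μM doxorubicin (positive) and DMSO (negative) controls.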

Cl.Nc1c2c(nc3ccc(NC(=O)CCCCCCc4ccccc4)cc13)CCCC2 [TCMDC-139056]
Is compound selective in assay? Pf FGAA active? [1]: 0 (0: NO) | IC50 [2]: 2380 nM | Unified cytotox (HepG2 cells): 5.42 µM

COC(=O)c1ccc(-c2ccc(-c3cccnc3)cc2C)cc1 [TCMDC-139074]
Is compound selective in assay? Pf FGAA active? [1]: 0 (0: NO) | IC50 [2]: 590 nM | Unified cytotox (HepG2 cells): 3.63 µM

c1ccc(C23N=C(Nc4nc5ccccc5[nH]4)NC2(c2ccccc2)NC(Nc2nc4ccccc4[nH]2)=N3)cc1 (stereo not drawn) [TCMDC-139082]
Is compound selective in assay? Pf FGAA active? [1]: 1 (1: YES) | IC50 [2]: 140 nM | Unified cytotox (HepG2 cells): 58.90 µM

COc1cccc(C23N=C(Nc4nc5ccccc5[nH]4)NC2(c2cccc(OC)c2)NC(Nc2nc4ccccc4[nH]2)=N3)c1 (stereo not drawn) [TCMDC-139087]
Is compound selective in assay? Pf FGAA active? [1]: 1 (1: YES) | IC50 [2]: 90 nM | Unified cytotox (HepG2 cells): 40.74 µM

Clc1cccc(C23N=C(Nc4nc5ccccc5[nH]4)NC2(c2ccccc2)NC(Nc2nc4ccccc4[nH]2)=N3)c1 (stereo not drawn) [TCMDC-139089]
Is compound selective in assay? Pf FGAA active? [1]: 1 (1: YES) | IC50 [2]: 150 nM | Unified cytotox (HepG2 cells): 42.76 µM

c1ccc(-c2nc(Nc3nc4ccccc4[nH]3)[nH]c2-c2ccccc2)cc1 [TCMDC-139099]
Is compound selective in assay? Pf FGAA active? [1]: 1 (1: YES) | IC50 [2]: 580 nM | Unified cytotox (HepG2 cells): 10.98 µM

Cc1cc2nc(N=C3NC4(c5ccccn5)NC(=Nc5nc6cc(C)c(C)cc6[nH]5)NC4(c4ccccn4)N3)[nH]c2cc1C.O=C(O)C(F)(F)F (stereo not drawn) [TCMDC-139105]
Is compound selective in assay? Pf FGAA active? [1]: 0 (0: NO) | IC50 [2]: 5340 nM | Unified cytotox (HepG2 cells): 35.91 µM

CN1CCN(c2cc3c(cc2Cl)CCN3C(=O)Nc2ccc(NC(=O)c3ccc(C(F)(F)F)cc3)cc2)CC1.Cl [TCMDC-139270]
Is compound selective in assay? Pf FGAA active? [1]: 0 (0: NO) | IC50 [2]: 690 nM | Unified cytotox (HepG2 cells): 3.99 µM

CC(NCCc1cccc(Cl)c1)C(O)c1ccc(OCCCCCCOc2ccc(C(O)C(C)NCCc3cccc(Cl)c3)cc2)cc1 (stereo not drawn) [TCMDC-139334]
Is compound selective in assay? Pf FGAA active? [1]: 0 (0: NO) | IC50 [2]: 1000 nM | Unified cytotox (HepG2 cells): 2.63 µM

Cc1cc(N)c2cc(NC(=O)/C=C/c3ccc([N+](=O)[O-])cc3)ccc2n1 [TCMDC-139335]
Is compound selective in assay? Pf FGAA active? [1]: 0 (0: NO) | IC50 [2]: 2690 nM | Unified cytotox (HepG2 cells): 5.37 µM

Cc1cc(N)c2cc(NC(=O)c3cc(C(F)(F)F)cc(C(F)(F)F)c3)ccc2n1.Cl [TCMDC-139377]
Is compound selective in assay? Pf FGAA active? [1]: 0 (0: NO) | IC50 [2]: 860 nM | Unified cytotox (HepG2 cells): 2.60 µM

O=C(Nc1cc(Cl)c(Cl)cc1NC(=O)c1cccc(-c2ccccc2)c1O)c1cccc(-c2ccccc2)c1O [TCMDC-139548]
Is compound selective in assay? Pf FGAA active? [1]: 0 (0: NO) | IC50 [2]: 1090 nM | Unified cytotox (HepG2 cells): 3.09 µM

COc1ccc2nc(N=C3NC4(c5ccccc5)NC(=Nc5nc6ccc(OC)cc6[nH]5)NC4(c4ccccc4)N3)[nH]c2c1.O=C(O)C(F)(F)F (stereo not drawn) [TCMDC-139632]
Is compound selective in assay? Pf FGAA active? [1]: 1 (1: YES) | IC50 [2]: 120 nM | Unified cytotox (HepG2 cells): 62.72 µM

CC(Cc1ccc(NS(=O)(=O)c2ccc(CC(C)NCCc3cccc(Cl)c3)cc2)cc1)NCCc1cccc(Cl)c1 (stereo not drawn) [TCMDC-139797]
Is compound selective in assay? Pf FGAA active? [1]: 0 (0: NO) | IC50 [2]: 1840 nM | Unified cytotox (HepG2 cells): 4.37 µM

CC(Cc1ccc(NC(=O)c2ccc(CC(C)NCc3ccc(Cl)cc3)cc2)cc1)NCCc1cccc(Cl)c1 (stereo not drawn) [TCMDC-139810]
Is compound selective in assay? Pf FGAA active? [1]: 0 (0: NO) | IC50 [2]: 860 nM | Unified cytotox (HepG2 cells): 4.03 µM

CC(Cc1ccc(NC(=O)c2ccc(CNCCCCc3ccccc3)cc2)cc1)NCCc1cccc(Cl)c1.Cl (stereo not drawn) [TCMDC-139866]
Is compound selective in assay? Pf FGAA active? [1]: 0 (0: NO) | IC50 [2]: 1120 nM | Unified cytotox (HepG2 cells): 1.97 µM

CC(Cc1ccc(NC(=O)c2ccc(CNCCc3ccccc3)cc2)cc1)NCCc1cccc(Cl)c1.Cl (stereo not drawn) [TCMDC-139867]
Is compound selective in assay? Pf FGAA active? [1]: 0 (0: NO) | IC50 [2]: 2070 nM | Unified cytotox (HepG2 cells): 4.17 µM

CCCCCCCN1CC[C@@H](CCCc2ccnc3ccc(OC)cc23)[C@@H](CNC)C1.O=C(O)C(=O)O [TCMDC-139875]
Is compound selective in assay? Pf FGAA active? [1]: 0 (0: NO) | IC50 [2]: 730 nM | Unified cytotox (HepG2 cells): 5.89 µM

CN(C)CCCNCc1ccc(-c2ccc(C(F)(F)F)cc2)cc1 [TCMDC-140011]
Is compound selective in assay? Pf FGAA active? [1]: 0 (0: NO) | IC50 [2]: 1680 nM | Unified cytotox (HepG2 cells): 4.90 µM

COc1cccc(CCNC(C)Cc2ccc(OCCCCOc3ccccc3)cc2)c1 (stereo not drawn) [TCMDC-140020]
Is compound selective in assay? Pf FGAA active? [1]: 0 (0: NO) | IC50 [2]: 1510 nM | Unified cytotox (HepG2 cells): 1.46 µM

Nc1ccc2[nH]cc(C3CCN(CC4CCN(C(=O)/C=C/c5ccc(Cl)c(Cl)c5)CC4)CC3)c2n1 [TCMDC-140061]
Is compound selective in assay? Pf FGAA active? [1]: 0 (0: NO) | IC50 [2]: 1770 nM | Unified cytotox (HepG2 cells): 5.89 µM

Nc1ccc2[nH]cc(C3CCN(CCC4CCN(C(=O)/C=C/c5ccc(Cl)c(Cl)c5)CC4)CC3)c2n1 [TCMDC-140062]
Is compound selective in assay? Pf FGAA active? [1]: 0 (0: NO) | IC50 [2]: 1290 nM | Unified cytotox (HepG2 cells): 8.13 µM

Nc1ccc2[nH]cc(C3CCN(CC4CCC(NC(=O)/C=C/c5ccc(Cl)c(Cl)c5)CC4)CC3)c2n1 (stereo not drawn) [TCMDC-140064]
Is compound selective in assay? Pf FGAA active? [1]: 1 (1: YES) | IC50 [2]: 690 nM | Unified cytotox (HepG2 cells): 12.59 µM

O=C(/C=C/c1ccc(Cl)c(Cl)c1)N1CCC(CN2CCC(c3c[nH]c4ccncc34)CC2)CC1 [TCMDC-140074]
Is compound selective in assay? Pf FGAA active? [1]: 0 (0: NO) | IC50 [2]: 870 nM | Unified cytotox (HepG2 cells): 5.32 µM

CC(=O)Nc1ccc2[nH]cc(C3CCN(CC4CCN(C(=O)/C=C/c5ccc(Cl)c(Cl)c5)CC4)CC3)c2n1 [TCMDC-140112]
Is compound selective in assay? Pf FGAA active? [1]: 0 (0: NO) | IC50 [2]: 1380 nM | Unified cytotox (HepG2 cells): 12.59 µM

CC(=O)Nc1ccc2[nH]cc(C3CCN(CC4CCC(NC(=O)/C=C/c5ccc(Cl)c(Cl)c5)CC4)CC3)c2n1 (stereo not drawn) [TCMDC-140114]
Is compound selective in assay? Pf FGAA active? [1]: 0 (0: NO) | IC50 [2]: 1740 nM | Unified cytotox (HepG2 cells): 13.49 µM

Nc1cc2c(C3CCN(CC4CCN(C(=O)/C=C/c5ccc(Cl)c(Cl)c5)CC4)CC3)c[nH]c2cn1 [TCMDC-140133]
Is compound selective in assay? Pf FGAA active? [1]: 0 (0: NO) | IC50 [2]: 1970 nM | Unified cytotox (HepG2 cells): 6.24 µM

COc1ccc(-c2ccccc2)cc1NC(=S)NC1CCC(CN2CCC(c3c[nH]c4ccccc34)CC2)CC1 (stereo not drawn) [TCMDC-140182]
Is compound selective in assay? Pf FGAA active? [1]: 0 (0: NO) | IC50 [2]: 1650 nM | Unified cytotox (HepG2 cells): 5.50 µM

CCN(CC)CCN(Cc1ccc(-c2ccc(Cl)cc2)cc1)C(=O)Cn1cc(CN(C)C)c(=O)nc1SCc1ccc(F)cc1 [TCMDC-140406]
Is compound selective in assay? Pf FGAA active? [1]: 0 (0: NO) | IC50 [2]: 1380 nM | Unified cytotox (HepG2 cells): 6.61 µM

CN1CCN(CCCNCc2ccccc2-c2cccc(CNCc3ccc4c(c3)OCO4)c2)CC1.O=C(O)C(F)(F)F [TCMDC-140476]
Is compound selective in assay? Pf FGAA active? [1]: 0 (0: NO) | IC50 [2]: 1640 nM | Unified cytotox (HepG2 cells): 1.51 µM

N=C(N)Nc1nc(-c2ccc(NCc3ccc(CNc4cccc(-c5csc(NC(=N)N)n5)c4)cc3)cc2)cs1 [TCMDC-140699]
Is compound selective in assay? Pf FGAA active? [1]: 0 (0: NO) | IC50 [2]: 900 nM | Unified cytotox (HepG2 cells): 4.79 µM

CN1CCC=C(C(=O)NCC(C)(C)c2nc(-c3ccc(Cl)c(O)c3)c(-c3ccncc3)[nH]2)C1.Cl [TCMDC-140700]
Is compound selective in assay? Pf FGAA active? [1]: 0 (0: NO) | IC50 [2]: 1910 nM | Unified cytotox (HepG2 cells): 13.36 µM

CCN(CC)CCN(Cc1ccc(-c2ccc(C(F)(F)F)cc2)cc1)C(=O)Cn1cc(Cc2cnn(C)c2)c(=O)nc1/C=C/c1ccc(F)cc1.O=C(O)C(O)C(O)C(=O)O [TCMDC-140741]
Is compound selective in assay? Pf FGAA active? [1]: 1 (1: YES) | IC50 [2]: 1210 nM | Unified cytotox (HepG2 cells): 13.81 µM

CN(C)CCOc1ccc(NC(=O)NC(C)(C)c2nc(-c3ccc(Cl)c(O)c3)c(-c3ccncc3)[nH]2)cc1.Cl [TCMDC-140744]
Is compound selective in assay? Pf FGAA active? [1]: 1 (1: YES) | IC50 [2]: 730 nM | Unified cytotox (HepG2 cells): 14.30 µM

CNCC(C)(C)c1nc(-c2ccc(Cl)c(O)c2)c(-c2ccncc2)[nH]1.Cl [TCMDC-140762]
Is compound selective in assay? Pf FGAA active? [1]: 1 (1: YES) | IC50 [2]: 880 nM | Unified cytotox (HepG2 cells): 13.52 µM

CC(C)(C)c1ccc(CNC(=O)/C=C/c2ccc(CNC3CCNCC3)cc2)cc1 [TCMDC-140773]
Is compound selective in assay? Pf FGAA active? [1]: 0 (0: NO) | IC50 [2]: 1920 nM | Unified cytotox (HepG2 cells): 9.47 µM

CC(C)(C)c1ccc(CNC(=O)c2cc(CNC3CCNCC3)ccc2O)cc1 [TCMDC-140775]
Is compound selective in assay? Pf FGAA active? [1]: 0 (0: NO) | IC50 [2]: 2000 nM | Unified cytotox (HepG2 cells): 13.96 µM

CC(C)(C)c1ccc(CNC(=O)c2ccc(CNC3CCC(N)CC3)s2)cc1 (stereo not drawn) [TCMDC-140777]
Is compound selective in assay? Pf FGAA active? [1]: 0 (0: NO) | IC50 [2]: 2440 nM | Unified cytotox (HepG2 cells): 8.95 µM

CC(C)(CNC(=O)[C@H]1CCCN1)c1nc(-c2ccc(Cl)c(O)c2)c(-c2ccncc2)[nH]1.Cl [TCMDC-141060]
Is compound selective in assay? Pf FGAA active? [1]: 1 (1: YES) | IC50 [2]: 1210 nM | Unified cytotox (HepG2 cells): 32.74 µM

CC(C)(CNC(=O)[C@@H]1CCCCN1)c1nc(-c2ccc(Cl)c(O)c2)c(-c2ccncc2)[nH]1.Cl [TCMDC-141079]
Is compound selective in assay? Pf FGAA active? [1]: 1 (1: YES) | IC50 [2]: 1580 nM | Unified cytotox (HepG2 cells): 38.91 µM

CC1(CCN2CCC(c3c[nH]c4cnccc34)CC2)CCCc2c(Br)cccc2C1=O.Cl (stereo not drawn) [TCMDC-141171]
Is compound selective in assay? Pf FGAA active? [1]: 0 (0: NO) | IC50 [2]: 1730 nM | Unified cytotox (HepG2 cells): 5.25 µM

CN1CCN(c2ccc(Nc3ncc([N+](=O)[O-])c(Nc4ccccc4O)n3)cc2)CC1.O=C(O)C(F)(F)F [TCMDC-141372]
Is compound selective in assay? Pf FGAA active? [1]: 0 (0: NO) | IC50 [2]: 2010 nM | Unified cytotox (HepG2 cells): 1.82 µM
